# Assay results reported in paper PMC10343686, “Integration of Hybridization Strategies in Pyridine–Urea Scaffolds for Novel Anticancer Agents: Design, Synthesis, and Mechanistic Insights” (Molecules, 2023).
# Entries after “also recorded” stand apart in the source; their conditions may differ. Like-named read-outs stand apart in the source and are kept apart here.
# Columns and labels:
# MCF7 cancer cell line [1] = assay: SRB assay of antiproliferative activity, MCF7; format: cell-based; conditions: for GI50: Homo sapiens, MCF7, SRB assay, 48 h, mean ± standard error (n = 3)
# Description: (§1) Breast cancer cell line MCF7 and colorectal carcinoma cell line HCT116 were obtained from the National Cancer Institute (MTA Number: 2702-09). Cells were cultured in complete RPMI 1640 medium (Hyclone, Logan, UT, USA) containing 10% FBS (Hyclone, Logan, UT, USA) in an atmosphere of 5% CO 2/100% humidity at 37 °C. Each investigated compound was diluted using DMSO to make a stock solution. It was treated by mixing with cell culture medium (RPMI1640 containing 10% FBS (Hyclone, Logan, UT, USA)) so that the final concentration of the drug was 0.001, 0.01, 0.1, 1, or 10 uM. There was no compound precipitated upon treatment in the culture medium.
# (§2) The SRB assay was performed following the methodology of previously published studies. In brief, the cells (100 μL medium containing 5000 HCT116 or 10,000 MCF7 cells/well) were incubated in 96-well microtiter plates. After 24 h, the drug was added (100 μL) to each well and the cultures were incubated for 48 h at 37 °C. The cells were fixed in 50% TCA (50 μL per well) for 1 h at 4 °C. The liquid was removed from the plate, which was then rinsed five times with water and allowed to dry at room temperature (RT). Washed cells were stained for 10 min at RT with 0.4% SRB (100 μL per well). After staining, the plate was washed 3 times with 1% glacial acetic acid and dried at RT. The SRB stain was then solubilized in 10 mM Tris and absorbances were read at 515 nm. The effect of the drugs was expressed in terms of the GI50 (the concentration resulting in 50% maximal inhibition of cell proliferation). […]
# HCT116 cancer cell line = assay: SRB assay of antiproliferative activity, HCT116; format: cell-based; conditions: Homo sapiens, HCT-116, 48 h, mean ± standard error (n = 3)
# Description: as §1, §2
# normal cell line HEK293 = assay: SRB assay of antiproliferative activity on normal cells; format: cell-based; conditions: HEK293, 48 h, Figure 3
# Description: The antiproliferative activity of compounds 8a, 8h, and 8i was evaluated in a sulforhodamine B (SRB) assay using normal cell line HEK293 cells. Cells were treated for 48 h under the same conditions used for the assessment of the antiproliferative activity on the cancer cells.
# MCF7 cancer cell line [2] = tested on: MCF7 cancer cell line; design: method as in PMID 35217379; conditions: cited from earlier work
GI50 (MCF7 cancer cell line [1]) [µM],GI50 (HCT116 cancer cell line) [µM],melting point [°C],SMILES,"potency compared to the positive control drug Irinotecan (MCF7 cancer cell line [1]; MCF7 cancer cell line, ratio of GI50 values) [fold]",cell growth inhibitory effect on normal cells (normal cell line HEK293),GI50 (MCF7 cancer cell line [2]) [µM]
> 10,> 10,332 to 335,"O=C(Nc1ccccc1)Nc1cc(-c2ccc3cncnc3c2)ccn1 [Compound 4a, 1-Phenyl-3-(4-(quinazolin-7-yl)pyridin-2-yl)urea]",,,
> 10,> 10,,"O=C(Nc1cccc(F)c1)Nc1cc(-c2ccc3cncnc3c2)ccn1 [Compound 4b, 1-(3-Fluorophenyl)-3-(4-(quinazolin-7-yl)pyridin-2-yl)urea]",,,
> 10,> 10,,"O=C(Nc1ccc(F)cc1)Nc1cc(-c2ccc3cncnc3c2)ccn1 [Compound 4c, 1-(4-Fluorophenyl)-3-(4-(quinazolin-7-yl)pyridin-2-yl)urea]",,,
> 10,> 10,,"COc1cccc(NC(=O)Nc2cc(-c3ccc4cncnc4c3)ccn2)c1 [Compound 4d, 1-(3-Methoxyphenyl)-3-(4-(quinazolin-7-yl)pyridin-2-yl)urea]",,,
> 10,> 10,,"COc1ccc(NC(=O)Nc2cc(-c3ccc4cncnc4c3)ccn2)cc1 [Compound 4e, 1-(4-Methoxyphenyl)-3-(4-(quinazolin-7-yl)pyridin-2-yl)urea]",,,
> 10,> 10,328 to 331,"O=C(Nc1cccc(C(F)(F)F)c1)Nc1cc(-c2ccc3cncnc3c2)ccn1 [Compound 4f, 1-(4-(Quinazolin-7-yl)pyridin-2-yl)-3-(3-(trifluoromethyl)phenyl)urea]",,,
> 10,> 10,,"O=C(Nc1cccc(OC(F)(F)F)c1)Nc1cc(-c2ccc3cncnc3c2)ccn1 [Compound 4g, 1-(4-(Quinazolin-7-yl)pyridin-2-yl)-3-(3-(trifluoromethoxy)phenyl)urea]",,,
> 10,> 10,318 to 321,"O=C(Nc1ccc(F)c(Cl)c1)Nc1cc(-c2ccc3cncnc3c2)ccn1 [Compound 4h, 1-(3-Chloro-4-fluorophenyl)-3-(4-(quinazolin-7-yl)pyridin-2-yl)urea]",,,
3.35 ± 0.101,> 10,190 to 193,"C=CCNC(=O)Nc1cc(-c2ccc3cncnc3c2)ccn1 [Compound 4i, 1-Allyl-3-(4-(quinazolin-7-yl)pyridin-2-yl)urea]",,,
> 10,> 10,223 to 226,"O=C(Nc1cc(-c2ccc3cncnc3c2)ccn1)NC1CCCC1 [Compound 4j, 1-Cyclopentyl-3-(4-(quinazolin-7-yl)pyridin-2-yl)urea]",,,
3.03 ± 0.061,> 10,221 to 224,"O=C(NCc1ccccc1)Nc1cc(-c2ccc3cncnc3c2)ccn1 [Compound 4k, 1-Benzyl-3-(4-(quinazolin-7-yl)pyridin-2-yl)urea]",,,
9 ± 0.347,> 10,260 to 263,"O=C(NCCc1ccccc1)Nc1cc(-c2ccc3cncnc3c2)ccn1 [Compound 4l, 1-Phenethyl-3-(4-(quinazolin-7-yl)pyridin-2-yl)urea]",,,
> 10,> 10,272 to 275,"O=C(NCCc1ccccc1F)Nc1cc(-c2ccc3cncnc3c2)ccn1 [Compound 4m, 1-(2-Fluorophenethyl)-3-(4-(quinazolin-7-yl)pyridin-2-yl)urea]",,,
> 10,> 10,214 to 217,"O=C(NCCc1ccc(F)cc1)Nc1cc(-c2ccc3cncnc3c2)ccn1 [Compound 4n, 1-(4-Fluorophenethyl)-3-(4-(quinazolin-7-yl)pyridin-2-yl)urea]",,,
0.06 ± 0.014,1.19 ± 0.035,218 to 221,"COc1n[nH]c2ccc(-c3ccnc(NC(=O)Nc4ccccc4)c3)cc12 [Compound 8a, 1-(4-(3-Methoxy-1H-indazol-5-yl)pyridin-2-yl)-3-phenylurea]",6,excellent safety profiles; also recorded: low cytotoxicity,
> 10,> 10,229 to 232,"COc1n[nH]c2ccc(-c3ccnc(NC(=O)Nc4cccc(F)c4)c3)cc12 [Compound 8b, 1-(3-Fluorophenyl)-3-(4-(3-methoxy-1H-indazol-5-yl)pyridin-2-yl)urea]",,,
3.73 ± 0.075,1.22 ± 0.141,229 to 232,"COc1n[nH]c2ccc(-c3ccnc(NC(=O)Nc4ccc(F)cc4)c3)cc12 [Compound 8c, 1-(4-Fluorophenyl)-3-(4-(3-methoxy-1H-indazol-5-yl)pyridin-2-yl)urea]",,,
1.89 ± 0.26,> 10,230 to 233,"COc1cccc(NC(=O)Nc2cc(-c3ccc4[nH]nc(OC)c4c3)ccn2)c1 [Compound 8d, 1-(4-(3-Methoxy-1H-indazol-5-yl)pyridin-2-yl)-3-(3-methoxyphenyl)urea]",,,
4.37 ± 0.359,> 10,240 to 242,"COc1ccc(NC(=O)Nc2cc(-c3ccc4[nH]nc(OC)c4c3)ccn2)cc1 [Compound 8e, 1-(4-(3-Methoxy-1H-indazol-5-yl)pyridin-2-yl)-3-(4-methoxyphenyl)urea]",,,
0.89 ± 0.209,0.92 ± 0.114,300 to 305,"COc1n[nH]c2ccc(-c3ccnc(NC(=O)Nc4ccc(F)c(Cl)c4)c3)cc12 [Compound 8f, 1-(3-Chloro-4-fluorophenyl)-3-(4-(3-methoxy-1H-indazol-5-yl)pyridin-2-yl)urea]",,,
1.17 ± 0.059,1.25 ± 0.037,222 to 225,"COc1n[nH]c2ccc(-c3ccnc(NC(=O)NC4CCCC4)c3)cc12 [Compound 8g, 1-Cyclopentyl-3-(4-(3-methoxy-1H-indazol-5-yl)pyridin-2-yl)urea]",,,
0.23 ± 0.015,0.33 ± 0.042,230 to 233,"COc1n[nH]c2ccc(-c3ccnc(NC(=O)NCc4ccccc4)c3)cc12 [Compound 8h, 1-Benzyl-3-(4-(3-methoxy-1H-indazol-5-yl)pyridin-2-yl)urea]",,excellent safety profiles; also recorded: low cytotoxicity,
0.16 ± 0.013,1.08 ± 0.006,200 to 203,"COc1n[nH]c2ccc(-c3ccnc(NC(=O)NCCc4ccccc4)c3)cc12 [Compound 8i, 1-(4-(3-Methoxy-1H-indazol-5-yl)pyridin-2-yl)-3-phenethylurea]",,excellent safety profiles; also recorded: low cytotoxicity,
0.75 ± 0.142,> 10,208 to 211,"COc1n[nH]c2ccc(-c3ccnc(NC(=O)NCCc4ccccc4F)c3)cc12 [Compound 8j, 1-(2-Fluorophenethyl)-3-(4-(3-methoxy-1H-indazol-5-yl)pyridin-2-yl)urea]",,,
1.13 ± 0.003,1.38 ± 0.086,209 to 212,"COc1n[nH]c2ccc(-c3ccnc(NC(=O)NCCc4ccc(F)cc4)c3)cc12 [Compound 8k, 1-(4-Fluorophenethyl)-3-(4-(3-methoxy-1H-indazol-5-yl)pyridin-2-yl)urea]",,,
0.35 ± 0.069,0.62 ± 0.003,,"CCc1c2c(nc3ccc(OC(=O)N4CCC(N5CCCCC5)CC4)cc13)-c1cc3c(c(=O)n1C2)COC(=O)[C@]3(O)CC [Irinotecan, reference compound]",,,
,,,CNC(=O)c1cc(Oc2ccc(NC(=O)Nc3ccc(Cl)c(C(F)(F)F)c3)cc2)ccn1 [Sorafenib],,,11.2
